How the values were obtained:
[1] = target: Recombinant human Cbl-b (aa 36-427) (Homo sapiens, UniProt Q13191); assay: Cbl-b Biochemical Assay (TR-FRET); conditions: read-out: TR-FRET hCbl-b IC50
[2] = target: T1, Recombinant human c-Cbl (aa 47-435) (Homo sapiens, UniProt P22681); assay: c-Cbl Biochemical Assay (TR-FRET); conditions: hc-Cbl Biochemical Assay (TR-FRET); read-out: TR-FRET hcCbl IC50
T1 sequence (P22681 47-435): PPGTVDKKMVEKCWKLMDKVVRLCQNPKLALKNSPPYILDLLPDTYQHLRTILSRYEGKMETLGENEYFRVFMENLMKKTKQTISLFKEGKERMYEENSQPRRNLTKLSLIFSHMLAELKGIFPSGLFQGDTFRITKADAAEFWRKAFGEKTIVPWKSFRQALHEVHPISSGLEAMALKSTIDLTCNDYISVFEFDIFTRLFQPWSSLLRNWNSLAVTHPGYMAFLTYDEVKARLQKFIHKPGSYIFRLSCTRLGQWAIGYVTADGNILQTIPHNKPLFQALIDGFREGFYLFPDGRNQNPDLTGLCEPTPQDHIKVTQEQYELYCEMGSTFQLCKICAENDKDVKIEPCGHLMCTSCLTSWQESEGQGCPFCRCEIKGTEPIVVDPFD

Recombinant human Cbl-b (aa 36-427), sequence (Q13191 36-427): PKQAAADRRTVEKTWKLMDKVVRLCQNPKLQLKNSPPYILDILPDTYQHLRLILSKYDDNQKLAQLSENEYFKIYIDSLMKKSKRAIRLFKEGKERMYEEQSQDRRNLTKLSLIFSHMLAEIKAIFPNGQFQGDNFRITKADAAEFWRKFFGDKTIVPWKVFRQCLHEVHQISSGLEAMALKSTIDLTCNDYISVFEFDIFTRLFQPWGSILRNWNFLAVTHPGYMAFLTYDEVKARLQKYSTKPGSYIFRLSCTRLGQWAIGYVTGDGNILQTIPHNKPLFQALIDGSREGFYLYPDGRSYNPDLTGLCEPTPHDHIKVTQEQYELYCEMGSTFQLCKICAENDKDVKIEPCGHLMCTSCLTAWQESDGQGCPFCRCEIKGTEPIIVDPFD

| Compound | IC50 [1] [µM] | IC50 [2] [µM] |
| --- | --- | --- |
| CCNc1cc(-c2ccccc2-c2nncn2C)cc(-c2nc3cc(CO)cc(C(F)(F)F)c3[nH]2)n1 [AAN-3, {2-[6-(Ethylamino)-4-[2-(4-methyl-1,2,4-triazol-3-yl)phenyl]pyridin-2-yl]-7-(trifluoromethyl)-1H-1,3-benzodiazol-5-yl}methanol] | 10 to 50 | 10 to 50 |
| CCNc1cc(-c2ccccc2-c2nncn2C)cc(-n2nc3c(C(F)(F)F)cccn3c2=O)n1 [AAO-4, 2-(6-(Ethylamino)-4-(2-(4-methyl-4H-1,2,4-triazol-3-yl)phenyl)pyridin-2-yl)-8-(trifluoromethyl)-[1,2,4]triazolo[4,3-a]pyridin-3(2H)-one] | 10 to 50 | 10 to 50 |
| Cn1cnnc1C[C@]1(c2cccc(-c3nc4cccc(C(F)(F)F)c4o3)c2)C[C@H](C#N)C1 [AAT-14, (1r,3r)-3-((4-Methyl-4H-1,2,4-triazol-3-yl)methyl)-3-(3-(7-(trifluoromethyl)benzo[d]oxazol-2-yl)phenyl)cyclobutane-1-carbonitrile] | 1 to 10 | 10 to 50 |
| Cn1cnnc1-c1cnn(C)c1-c1cccc(-c2nc3cc(CN[C@H]4CCC[C@@H]4O)cc(C(F)(F)F)c3o2)c1 [AAU-6, (1S,2S)-2-(((2-(3-(1-Methyl-4-(4-methyl-4H-1,2,4-triazol-3-yl)-1H-pyrazol-5-yl)phenyl)-7-(trifluoromethyl)benzo[d]oxazol-5-yl)methyl)amino)cyclopentan-1-ol] | 0.2 to 1 | 10 to 50 |
| Cn1cnnc1-c1cnn(C)c1-c1cccc(-c2nc3cc(CN[C@@H]4CCC[C@H]4O)cc(C(F)(F)F)c3o2)c1 [AAV-2, (1R,2R)-2-(((2-(3-(1-Methyl-4-(4-methyl-4H-1,2,4-triazol-3-yl)-1H-pyrazol-5-yl)phenyl)-7-(trifluoromethyl)benzo[d]oxazol-5-yl)methyl)amino)cyclopentan-1-ol] | 1 to 10 | 10 to 50 |
| Cn1cnnc1CC1(c2cccc(-c3nc4cccc(C(F)(F)F)c4[nH]3)c2)COC1 [ABB-2, 2-(3-(3-((4-Methyl-4H-1,2,4-triazol-3-yl)methyl)oxetan-3-yl)phenyl)-7-(trifluoromethyl)-1H-benzo[d]imidazole] | 10 to 50 | 10 to 50 |
| Cn1cnnc1CC1(c2cccc(-c3nc4cccc(C(F)(F)F)n4n3)c2)COC1 [ABC-4, 2-(3-(3-((4-Methyl-4H-1,2,4-triazol-3-yl)methyl)oxetan-3-yl)phenyl)-5-(trifluoromethyl)-[1,2,4]triazolo[1,5-a]pyridine] | 10 to 50 | 10 to 50 |
| C[C@H](Cc1nncn1C)c1cccc(-c2nc3cccc(C(F)(F)F)c3[nH]2)c1 [ABD-9, 2-{3-[(2R)-1-(4-Methyl-1,2,4-triazol-3-yl)propan-2-yl]phenyl}-4-(trifluoromethyl)-3H-1,3-benzodiazole] | 10 to 50 | 10 to 50 |
| Cn1cnnc1CC1(c2cccc(-c3nc4cc(C(=O)N5CCCC5)cc(C(F)(F)F)c4[nH]3)c2)COC1 [ABH-4, (2-(3-(3-((4-Methyl-4H-1,2,4-triazol-3-yl)methyl)oxetan-3-yl)phenyl)-7-(trifluoromethyl)-1H-benzo[d]imidazol-5-yl)(pyrrolidin-1-yl)methanone] | 10 to 50 | 10 to 50 |
| Cn1cnnc1CC1(c2cccc(-c3nc4cc(C(=O)N5CCC6(CC6)C5)cc(C(F)(F)F)c4[nH]3)c2)COC1 [ABJ-2, (2-(3-(3-((4-Methyl-4H-1,2,4-triazol-3-yl)methyl)oxetan-3-yl)phenyl)-7-(trifluoromethyl)-1H-benzo[d]imidazol-5-yl)(5-azaspiro[2.4]heptan-5-yl)methanone] | 10 to 50 | 10 to 50 |
| Cn1cnnc1CC1(c2cccc(-c3nc4cc(CN5CCCC5)cc(C(F)(F)F)c4[nH]3)c2)COC1 [ABL-1, 2-(3-(3-((4-Methyl-4H-1,2,4-triazol-3-yl)methyl)oxetan-3-yl)phenyl)-5-(pyrrolidin-1-ylmethyl)-7-(trifluoromethyl)-1H-benzo[d]imidazole] | 0.2 to 1 | 10 to 50 |

— patent US20250163038A1, “CBL-B MODULATORS AND USES THEREOF” (Nimbus Clio, Inc., priority 2021, published 2025)
